Columns and labels:
Test in all cases: relative viability (nuclei count vs DMSO), 5 days (fraction); higher = more cells survive
[1] = compound: COc1cc2nc(N3CCCN(C)CC3)nc(NC3CCN(Cc4ccccc4)CC3)c2cc1OC
Procedure, shortened: (§1)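 Cells of lung cancer lines were placed in 1536-well plates and kept overnight at 37 °C. Pinning then delivered five library-drug doses (not always all listed), spaced by √10, onto plates anchored with vehicle, and the cells were left 5 days without changing medium. One step fixed, permeabilised and stained them with Hoechst, and MetaXpress counted nuclei in 4× images. Viability, as a median over plates, is treated-well nuclei divided by vehicle-well nuclei, with acceptance only at control CV below 25% and at least one doubling.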

[2] = compound: Cc1cc([C@@H](C)Nc2ccccc2C(=O)O)c2nc(N3CCOCC3)cc(=O)n2c1 [AZD6482]
Procedure, shortened: as §1

[3] = compound: COc1cc2nc(N3CCCN(C)CC3)nc(NC3CCN(Cc4ccccc4)CC3)c2cc1OC + CC1(C)CCC(c2ccc(Cl)cc2)=C(CN2CCN(c3ccc(C(=O)NS(=O)(=O)c4ccc(N[C@H](CCN5CCOCC5)CSc5ccccc5)c(S(=O)(=O)C(F)(F)F)c4)cc3)CC2)C1 [Navitoclax] (partner 0.5 µM)
Procedure, shortened: (§2)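 Relative viability equals treated-well nuclei counts divided by vehicle-well nuclei counts. Counts came from 4× images of lung cancer cell lines grown in 1536-well plates for 5 days after pin-tool dosing on the day after seeding. Dosing used one drug alone or a fixed anchor-drug dose plus five library-drug doses (not always all listed) in √10 steps, and values are medians of duplicate plates.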

[4] = compound: COc1cc2nc(N3CCCN(C)CC3)nc(NC3CCN(Cc4ccccc4)CC3)c2cc1OC + COc1cc2c(Oc3ccc(NC(=O)C4(C(=O)Nc5ccc(F)cc5)CC4)cc3F)ccnc2cc1OCCCN1CCOCC1 [Foretinib] (partner 0.25 µM)
Procedure, shortened: as §2

Cell Line	relative viability ([1]; 0.2 µM)	relative viability ([1]; 0.6325 µM)	relative viability ([1]; 2 µM)	relative viability ([1]; 6.325 µM)	relative viability ([2]; 0.08 µM)	relative viability ([2]; 0.253 µM)	relative viability ([2]; 0.8 µM)	relative viability ([2]; 2.53 µM)	relative viability ([2]; 8 µM)	relative viability ([3]; first compound 0.2 µM)	relative viability ([3]; first compound 0.6325 µM)	relative viability ([3]; first compound 2 µM)	relative viability ([3]; first compound 6.325 µM)	relative viability ([4]; first compound 0.2 µM)	relative viability ([4]; first compound 0.6325 µM)	relative viability ([4]; first compound 2 µM)	relative viability ([4]; first compound 6.325 µM)
LU99A	0.868	0.838	1.03	0.885	0.915	0.894	1.04	0.797	0.948	0.899	0.689	0.625	0.815	0.895	0.864	0.821	0.803
NCI-H1355	0.891	0.992	1	0.95	0.872	0.852	1.01	0.733	0.777	0.918	0.947	1.01	0.921	0.973	0.968	1.05	0.919
HCC-78	0.937	1.04	1.08	1.02	0.749	0.622	0.632	0.372	0.405	0.844	0.779	0.717	0.602	0.57	0.578	0.58	0.533
HCC-15	0.985	0.977	1.06	0.862	1.03	0.962	1.04	0.857	0.945	0.725	0.749	0.765	0.487	1.1	1	1.06	0.853
EKVX	0.953	1.04	0.962	0.954	0.813	0.819	0.832	0.549	0.654	0.826	0.926	1.04	0.881	0.754	0.814	0.986	0.794
NCI-H2087	0.921	0.995	1.03	1.09	0.841	0.996	1.35	0.555	1.08	1.06	0.933	1.28	0.854	1.12	0.99	1.31	1.25
LK-2	1	1.09	1.06	0.995	1.07	0.915	1.07	0.818	0.781	0.91	0.843	1.16	0.637	1.49	0.932	1.13	1.12
NCI-H1437	0.983	0.992	1.06	0.99	1.04	0.972	1.03	0.847	0.726	1.12	1.04	1.17	1.04	1.21	1.21	1.38	1.23
COR-L23	0.942	1.03	1.06	1.03	0.808	1.02	1.08	0.845	0.834	1.05	1.08	1.15	1.08	1.02	0.95	0.965	0.996
NCI-H838	0.992	1.03	1.08	0.92	0.826	0.95	0.914	0.538	0.535	1.17	1.13	1.27	1.08	1.08	1.17	1.06	1.03
A549	1.02	1.01	0.992	0.935	0.935	0.965	0.947	0.566	0.769	1.24	1.13	1.14	1.06	0.951	0.966	0.997	0.763
A-427	0.922	1.06	1.01	0.882	0.965	0.884	1.02	0.651	0.974	1.04	0.966	1	0.948	0.918	0.977	1.13	1.09
LCLC-97TM1	0.936	0.996	1.09	0.947	1.03	0.865	0.855	–	0.836	0.37	–	0.34	0.444	0.951	0.994	0.913	0.844
NCI-H1703	1.09	0.789	0.975	0.571	0.861	0.797	0.676	0.332	0.414	1.25	0.92	1.11	0.41	0.313	0.317	0.412	0.448
PC-3 [JPC-3]	1.06	1.02	1.06	0.959	0.899	1.06	1.08	0.814	0.985	0.89	0.815	0.775	0.741	1.03	1.03	1.14	0.992
BEN	1.03	1.06	1.19	1.04	0.889	0.791	1.05	0.803	0.853	0.0596	0.0723	0.0708	0.0777	0.908	0.786	0.91	0.972
NCI-H1666	0.948	1.05	0.947	0.903	0.842	0.95	0.984	0.853	1.05	0.934	1.16	1.03	0.642	0.897	0.969	1.13	0.932
LC-2-ad	0.929	1.05	1.09	0.955	0.982	0.891	1.07	0.658	0.693	0.363	0.447	0.444	0.397	0.813	0.938	0.956	0.974
SK-LU-1	1.01	1.01	1.08	1.02	–	0.978	1.03	0.722	0.592	1.06	1	1.2	0.461	0.839	0.79	0.783	0.653

— the supplement of paper PMC10307832
